Results as given in ChEMBL document CHEMBL3758136, “Design, synthesis and in vitro activity of phidianidine B derivatives as novel PTP1B inhibitors with specific selectivity” (Bioorg Med Chem Lett, 2016).

Key:
[1] = target: T1, Tyrosine-protein phosphatase non-receptor type 2 (Homo sapiens, UniProt P17706); test: Inhibition of human TCPTP as hydrolysis of pNPP after 2 mins
T1 sequence (P17706 whole entry): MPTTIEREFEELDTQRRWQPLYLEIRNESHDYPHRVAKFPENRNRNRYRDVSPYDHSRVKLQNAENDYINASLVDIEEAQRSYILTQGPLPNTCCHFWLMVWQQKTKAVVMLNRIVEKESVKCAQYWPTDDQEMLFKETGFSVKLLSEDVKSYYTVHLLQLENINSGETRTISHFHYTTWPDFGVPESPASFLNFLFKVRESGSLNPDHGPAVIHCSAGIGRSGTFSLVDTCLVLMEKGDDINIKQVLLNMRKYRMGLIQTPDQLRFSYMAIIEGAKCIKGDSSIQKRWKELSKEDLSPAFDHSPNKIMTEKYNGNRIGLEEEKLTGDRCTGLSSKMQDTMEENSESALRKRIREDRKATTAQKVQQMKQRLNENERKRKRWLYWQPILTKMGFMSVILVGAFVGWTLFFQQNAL

[2] = target: Receptor-type tyrosine-protein phosphatase F (Homo sapiens, UniProt P10586); test: Inhibition of human LAR as hydrolysis of pNPP after 2 mins
Receptor-type tyrosine-protein phosphatase F, sequence (P10586 whole entry, the tested form may be a part): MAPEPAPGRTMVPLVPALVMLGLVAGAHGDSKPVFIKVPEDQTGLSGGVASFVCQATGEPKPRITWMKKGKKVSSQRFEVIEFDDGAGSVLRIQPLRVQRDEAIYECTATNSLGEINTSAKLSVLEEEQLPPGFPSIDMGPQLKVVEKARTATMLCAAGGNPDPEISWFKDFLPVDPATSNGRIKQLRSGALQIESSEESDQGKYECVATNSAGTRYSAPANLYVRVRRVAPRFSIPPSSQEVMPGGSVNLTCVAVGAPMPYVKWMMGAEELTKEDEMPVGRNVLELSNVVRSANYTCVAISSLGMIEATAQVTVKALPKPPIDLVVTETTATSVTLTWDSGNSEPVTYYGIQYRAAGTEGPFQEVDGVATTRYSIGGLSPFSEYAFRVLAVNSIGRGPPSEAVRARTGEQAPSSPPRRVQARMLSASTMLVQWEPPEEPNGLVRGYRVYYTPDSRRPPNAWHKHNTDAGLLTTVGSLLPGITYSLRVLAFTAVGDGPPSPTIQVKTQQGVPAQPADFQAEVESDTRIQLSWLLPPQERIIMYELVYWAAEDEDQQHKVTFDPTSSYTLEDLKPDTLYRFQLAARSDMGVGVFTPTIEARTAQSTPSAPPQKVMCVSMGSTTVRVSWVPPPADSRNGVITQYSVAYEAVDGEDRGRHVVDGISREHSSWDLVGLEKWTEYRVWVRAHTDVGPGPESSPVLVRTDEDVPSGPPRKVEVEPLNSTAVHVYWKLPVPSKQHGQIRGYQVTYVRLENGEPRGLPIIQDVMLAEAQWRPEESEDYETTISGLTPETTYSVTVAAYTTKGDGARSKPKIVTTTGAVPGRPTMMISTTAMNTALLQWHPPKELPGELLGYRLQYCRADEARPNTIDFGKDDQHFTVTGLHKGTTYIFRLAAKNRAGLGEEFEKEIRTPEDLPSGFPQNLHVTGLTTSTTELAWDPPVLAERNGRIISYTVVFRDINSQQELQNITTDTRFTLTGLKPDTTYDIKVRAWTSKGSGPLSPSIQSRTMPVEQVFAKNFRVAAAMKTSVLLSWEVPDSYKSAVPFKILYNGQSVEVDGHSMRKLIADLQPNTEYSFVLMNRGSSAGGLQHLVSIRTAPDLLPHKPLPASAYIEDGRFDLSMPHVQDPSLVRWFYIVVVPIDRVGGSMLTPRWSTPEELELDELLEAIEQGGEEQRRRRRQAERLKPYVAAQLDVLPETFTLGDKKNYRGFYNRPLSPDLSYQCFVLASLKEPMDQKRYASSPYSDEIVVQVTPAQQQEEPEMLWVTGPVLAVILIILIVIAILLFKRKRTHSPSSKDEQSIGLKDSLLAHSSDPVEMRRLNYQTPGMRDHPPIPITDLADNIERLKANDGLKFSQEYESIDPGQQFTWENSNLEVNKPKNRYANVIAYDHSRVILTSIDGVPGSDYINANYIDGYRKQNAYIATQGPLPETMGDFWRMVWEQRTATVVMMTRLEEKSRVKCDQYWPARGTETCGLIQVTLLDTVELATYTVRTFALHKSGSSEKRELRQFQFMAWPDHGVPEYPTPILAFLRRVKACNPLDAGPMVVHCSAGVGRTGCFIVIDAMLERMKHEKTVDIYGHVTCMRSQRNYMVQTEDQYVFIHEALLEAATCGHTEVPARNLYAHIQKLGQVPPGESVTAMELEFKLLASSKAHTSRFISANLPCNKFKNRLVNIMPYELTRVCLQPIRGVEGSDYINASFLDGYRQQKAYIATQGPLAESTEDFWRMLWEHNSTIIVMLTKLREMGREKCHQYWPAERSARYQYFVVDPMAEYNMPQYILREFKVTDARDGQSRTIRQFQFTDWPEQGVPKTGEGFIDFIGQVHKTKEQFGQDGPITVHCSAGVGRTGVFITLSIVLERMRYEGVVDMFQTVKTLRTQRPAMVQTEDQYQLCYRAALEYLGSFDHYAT

[3] = target: T2, Tyrosine-protein phosphatase non-receptor type 1 (Homo sapiens, UniProt P18031); test: Inhibition of recombinant human PTP1B catalytic domain assessed as hydrolysis of pNPP after 2 mins
T2 sequence (P18031 whole entry): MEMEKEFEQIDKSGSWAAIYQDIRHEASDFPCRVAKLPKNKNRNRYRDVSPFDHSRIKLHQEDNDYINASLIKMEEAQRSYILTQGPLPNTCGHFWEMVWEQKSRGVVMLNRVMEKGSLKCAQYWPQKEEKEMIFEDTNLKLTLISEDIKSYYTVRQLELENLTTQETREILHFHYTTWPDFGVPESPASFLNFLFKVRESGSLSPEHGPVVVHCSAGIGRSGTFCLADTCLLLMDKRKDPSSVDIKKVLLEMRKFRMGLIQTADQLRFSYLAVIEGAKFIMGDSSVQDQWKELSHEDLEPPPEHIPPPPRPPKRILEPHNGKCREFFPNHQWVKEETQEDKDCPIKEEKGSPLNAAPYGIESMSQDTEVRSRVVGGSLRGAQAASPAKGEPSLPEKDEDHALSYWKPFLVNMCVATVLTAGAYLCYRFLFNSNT

[4] = target: Tyrosine-protein phosphatase non-receptor type 6 (Homo sapiens, UniProt P29350); test: Inhibition of human SHP1 as hydrolysis of pNPP after 2 mins
Tyrosine-protein phosphatase non-receptor type 6, sequence (P29350 whole entry): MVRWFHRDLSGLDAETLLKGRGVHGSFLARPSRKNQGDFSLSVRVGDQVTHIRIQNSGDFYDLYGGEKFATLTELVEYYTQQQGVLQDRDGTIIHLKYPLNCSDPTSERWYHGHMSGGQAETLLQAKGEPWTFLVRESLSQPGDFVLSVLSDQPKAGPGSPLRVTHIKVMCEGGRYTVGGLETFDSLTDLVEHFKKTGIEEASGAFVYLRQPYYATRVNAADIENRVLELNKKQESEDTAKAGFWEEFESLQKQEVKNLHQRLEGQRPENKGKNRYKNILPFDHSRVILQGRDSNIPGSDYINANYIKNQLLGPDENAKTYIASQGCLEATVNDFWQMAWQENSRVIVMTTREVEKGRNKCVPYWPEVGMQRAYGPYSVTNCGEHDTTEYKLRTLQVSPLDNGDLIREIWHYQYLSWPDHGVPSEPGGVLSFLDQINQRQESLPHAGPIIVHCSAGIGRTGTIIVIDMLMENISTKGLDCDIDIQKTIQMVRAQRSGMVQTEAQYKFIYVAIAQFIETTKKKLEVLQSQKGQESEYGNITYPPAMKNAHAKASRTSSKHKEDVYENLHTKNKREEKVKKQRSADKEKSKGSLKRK

[5] = target: T3, Tyrosine-protein phosphatase non-receptor type 11 (Homo sapiens, UniProt Q06124); test: Inhibition of human SHP2 as hydrolysis of pNPP after 2 mins
T3 sequence (Q06124 whole entry): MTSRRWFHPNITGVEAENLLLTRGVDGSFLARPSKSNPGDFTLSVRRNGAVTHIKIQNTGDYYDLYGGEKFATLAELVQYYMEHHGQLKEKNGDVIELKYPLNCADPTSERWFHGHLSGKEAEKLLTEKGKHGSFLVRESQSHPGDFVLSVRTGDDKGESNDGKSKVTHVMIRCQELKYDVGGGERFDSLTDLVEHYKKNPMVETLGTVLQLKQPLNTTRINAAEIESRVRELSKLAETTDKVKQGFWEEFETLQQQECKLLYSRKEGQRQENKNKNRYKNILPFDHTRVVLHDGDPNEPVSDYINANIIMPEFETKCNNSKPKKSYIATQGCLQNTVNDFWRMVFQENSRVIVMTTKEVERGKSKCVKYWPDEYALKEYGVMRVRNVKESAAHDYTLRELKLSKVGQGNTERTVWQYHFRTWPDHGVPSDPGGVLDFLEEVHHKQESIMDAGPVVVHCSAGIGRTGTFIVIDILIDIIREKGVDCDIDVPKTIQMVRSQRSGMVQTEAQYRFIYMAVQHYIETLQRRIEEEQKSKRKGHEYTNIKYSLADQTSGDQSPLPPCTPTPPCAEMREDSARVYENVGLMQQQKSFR

| IC50 [1] [µM] | IC50 [2] [µM] | IC50 [3] [µM] | IC50 [4] [µM] | IC50 [5] [µM] | Structure (SMILES) |
| --- | --- | --- | --- | --- | --- |
| > 120 | > 120 | 13.1 | > 120 | > 120 | CCc1ccc(-c2ccc(-c3noc(Cc4c[nH]c5ccccc45)n3)s2)cc1 |
| > 120 | > 120 | 8.8 | > 120 | > 120 | CCCCc1ccc(-c2cccc(-c3noc(Cc4c[nH]c5ccccc45)n3)c2)cc1 |
| > 120 | > 120 | > 120 | > 120 | > 120 | Cc1cccc(-c2ccc(-c3noc(Cc4c[nH]c5ccccc45)n3)s2)c1 |
| > 120 | > 120 | 24.4 | > 120 | > 120 | Cc1ccccc1-c1cccc(-c2noc(Cc3c[nH]c4ccccc34)n2)c1 |
| > 120 | > 120 | 15.8 | > 120 | > 120 | Cc1cccc(-c2cccc(-c3noc(Cc4c[nH]c5ccccc45)n3)c2)c1 |
| > 120 | > 120 | 21.9 | > 120 | > 120 | Oc1ccc(-c2cccc(-c3noc(Cc4c[nH]c5ccccc45)n3)c2)cc1 |
| > 120 | > 120 | 15.9 | > 120 | > 120 | CCOc1ccc(-c2cccc(-c3noc(Cc4c[nH]c5ccccc45)n3)c2)cc1 |
| > 120 | > 120 | 18.4 | > 120 | > 120 | CCCOc1ccc(-c2cccc(-c3noc(Cc4c[nH]c5ccccc45)n3)c2)cc1 |
| > 120 | > 120 | 21.7 | > 120 | > 120 | Cc1cccc(-c2cccc(-c3noc(Cc4c[nH]c5ccccc45)n3)n2)c1 |
| > 120 | > 120 | > 120 | > 120 | > 120 | Nc1ccc(-c2ccc(-c3noc(Cc4c[nH]c5ccccc45)n3)s2)cc1 |
| > 120 | > 120 | > 120 | > 120 | > 120 | CCCc1ccc(-c2cccc(-c3noc(Cc4c[nH]c5ccccc45)n3)c2)cc1 |
| > 120 | > 120 | > 120 | > 120 | > 120 | Nc1ccc(-c2cccc(-c3noc(Cc4c[nH]c5ccccc45)n3)c2)cc1 |
| > 120 | > 120 | > 120 | > 120 | > 120 | COC(=O)CCCOc1ccc(-c2cccc(-c3noc(Cc4c[nH]c5ccccc45)n3)c2)cc1 |
| > 120 | > 120 | 19.7 | > 120 | > 120 | Brc1cccc(-c2noc(Cc3c[nH]c4ccccc34)n2)c1 |

Continued, compound first:

| Structure (SMILES) | IC50 [1] [µM] | IC50 [2] [µM] | IC50 [3] [µM] | IC50 [4] [µM] | IC50 [5] [µM] |
| --- | --- | --- | --- | --- | --- |
| CCCc1ccc(-c2ccc(-c3noc(Cc4c[nH]c5ccccc45)n3)s2)cc1 | > 120 | > 120 | 12.5 | > 120 | > 120 |
| CCCOc1ccc(-c2cccc(-c3noc(Cc4c[nH]c5ccccc45)n3)n2)cc1 | > 120 | > 120 | 9.66 | > 120 | > 120 |
| Cc1ccccc1-c1ccc(-c2noc(Cc3c[nH]c4ccccc34)n2)s1 | > 120 | > 120 | 16.8 | > 120 | > 120 |
| CCOc1ccc(-c2ccc(-c3noc(Cc4c[nH]c5ccccc45)n3)s2)cc1 | > 120 | > 120 | 17.3 | > 120 | > 120 |
| Brc1cccc(-c2noc(Cc3c[nH]c4ccccc34)n2)n1 | > 120 | > 120 | > 120 | > 120 | > 120 |
| CC1(C)CC[C@]2(C(=O)O)CC[C@]3(C)C(=CC[C@@H]4[C@@]5(C)CC[C@H](O)C(C)(C)[C@@H]5CC[C@]43C)[C@@H]2C1 [OLEANOLIC_ACID] |  | > 120 |  |  | > 120 |
| Brc1ccc(-c2noc(Cc3c[nH]c4ccccc34)n2)s1 | > 120 | > 120 | 14.1 | > 120 | > 120 |
| CCCOc1ccc(-c2ccc(-c3noc(Cc4c[nH]c5ccccc45)n3)s2)cc1 | > 120 | > 120 | 13.7 | > 120 | > 120 |
| COC(=O)CCCOc1ccc(-c2ccc(-c3noc(Cc4c[nH]c5ccccc45)n3)s2)cc1 | > 120 | > 120 | > 120 | > 120 | > 120 |
| CCOc1ccc(-c2cccc(-c3noc(Cc4c[nH]c5ccccc45)n3)n2)cc1 | > 120 | > 120 | 31.5 | > 120 | > 120 |
| Cc1ccccc1-c1cccc(-c2noc(Cc3c[nH]c4ccccc34)n2)n1 | > 120 | > 120 | 26.1 | > 120 | > 120 |
| CCCCc1ccc(-c2ccc(-c3noc(Cc4c[nH]c5ccccc45)n3)s2)cc1 | > 120 | > 120 | 8.96 | > 120 | > 120 |
| CCCCc1ccc(-c2cccc(-c3noc(Cc4c[nH]c5ccccc45)n3)n2)cc1 | > 120 | > 120 | 9.66 | > 120 | > 120 |
